The target in experiment [1] is T1, Megakaryocyte-associated tyrosine-protein kinase (Homo sapiens) (UniProt P42679).
T1 sequence (whole entry): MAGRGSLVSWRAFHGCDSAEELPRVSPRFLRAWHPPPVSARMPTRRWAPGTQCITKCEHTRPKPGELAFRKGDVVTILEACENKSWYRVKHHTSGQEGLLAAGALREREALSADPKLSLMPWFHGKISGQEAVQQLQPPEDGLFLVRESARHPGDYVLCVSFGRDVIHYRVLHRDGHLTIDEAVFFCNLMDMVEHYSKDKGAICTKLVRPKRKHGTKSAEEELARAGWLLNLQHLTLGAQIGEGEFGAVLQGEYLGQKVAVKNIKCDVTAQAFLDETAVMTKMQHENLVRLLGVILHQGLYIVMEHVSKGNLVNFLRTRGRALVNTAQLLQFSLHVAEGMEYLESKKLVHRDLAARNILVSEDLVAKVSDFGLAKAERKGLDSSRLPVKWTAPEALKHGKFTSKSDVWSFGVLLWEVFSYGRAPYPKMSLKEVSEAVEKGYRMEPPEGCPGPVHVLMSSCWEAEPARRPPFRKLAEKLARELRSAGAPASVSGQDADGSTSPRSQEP
The experiment can be described thus: Selectivity interaction (ProQinase) EUB0000171b MATK.

Experiment [2] addresses T2, Serine/threonine-protein kinase D2 (Homo sapiens) (UniProt Q9BZL6).
T2 sequence (whole entry): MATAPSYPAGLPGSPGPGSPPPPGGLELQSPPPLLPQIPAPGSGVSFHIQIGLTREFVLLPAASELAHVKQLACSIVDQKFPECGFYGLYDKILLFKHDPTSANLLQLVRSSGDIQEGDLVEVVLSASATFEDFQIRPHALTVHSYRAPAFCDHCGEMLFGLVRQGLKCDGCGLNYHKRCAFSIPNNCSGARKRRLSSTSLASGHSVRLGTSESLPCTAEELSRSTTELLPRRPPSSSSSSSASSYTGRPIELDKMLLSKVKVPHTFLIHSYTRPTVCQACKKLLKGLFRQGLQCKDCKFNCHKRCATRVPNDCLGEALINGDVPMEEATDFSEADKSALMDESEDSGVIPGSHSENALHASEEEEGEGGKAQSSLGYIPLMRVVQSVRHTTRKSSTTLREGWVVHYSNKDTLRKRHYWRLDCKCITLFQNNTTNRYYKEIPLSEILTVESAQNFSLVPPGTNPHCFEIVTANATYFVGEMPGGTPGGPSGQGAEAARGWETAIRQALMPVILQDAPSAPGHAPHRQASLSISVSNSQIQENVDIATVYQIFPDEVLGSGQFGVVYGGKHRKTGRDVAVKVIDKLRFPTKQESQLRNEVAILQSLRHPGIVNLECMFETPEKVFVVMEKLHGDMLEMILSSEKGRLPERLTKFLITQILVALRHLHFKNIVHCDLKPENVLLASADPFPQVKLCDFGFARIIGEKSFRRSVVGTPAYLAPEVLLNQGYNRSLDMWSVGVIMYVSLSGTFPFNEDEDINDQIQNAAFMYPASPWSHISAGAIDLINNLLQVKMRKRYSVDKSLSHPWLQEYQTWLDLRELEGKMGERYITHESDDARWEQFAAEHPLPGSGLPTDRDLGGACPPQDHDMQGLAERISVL
The experiment in a line: Selectivity interaction (ProQinase) EUB0000171b PRKD2.

Experiment [3] has as its target Phosphatidylinositol 4-phosphate 5-kinase type-1 gamma (Homo sapiens) (UniProt O60331). Particulars: at 10 µM.
Experiment [4] addresses Fibroblast growth factor receptor 2 (Homo sapiens) (UniProt P21802). The experiment can be described thus: Selectivity interaction (Ambit KINOMEscan and KiNATiv profiling in Jurkat cells) EUB0000090b FGFR2. The class given is cell-based. Particulars: at 1 µM.
The target in experiment [5] is T3, Serine/threonine-protein kinase 17B (Homo sapiens) (UniProt O94768).
T3 sequence (whole entry): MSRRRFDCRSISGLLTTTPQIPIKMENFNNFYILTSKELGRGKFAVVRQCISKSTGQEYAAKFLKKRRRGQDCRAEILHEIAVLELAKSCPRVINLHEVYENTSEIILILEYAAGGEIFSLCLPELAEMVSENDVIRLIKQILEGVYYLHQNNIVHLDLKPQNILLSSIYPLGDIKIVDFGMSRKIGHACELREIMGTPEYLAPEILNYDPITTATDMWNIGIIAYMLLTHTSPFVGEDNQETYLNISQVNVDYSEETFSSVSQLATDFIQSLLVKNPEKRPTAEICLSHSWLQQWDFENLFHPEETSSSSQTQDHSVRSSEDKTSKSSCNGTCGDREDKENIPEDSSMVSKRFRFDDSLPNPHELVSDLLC
The experiment can be described thus: Selectivity interaction (KinomeScan (DiscoverX)) EUB0001079a STK17B. The note with it: at 1 µM.

The target of experiment [6] is Cyclin-dependent kinase 9 (Homo sapiens, UniProt P50750). The experiment in a line: Selectivity interaction (KinomeScan (DiscoverX)) EUB0000092b CDK9. The note with it: at 10 µM.
Experiment [7] concerns the target Androgen receptor (Homo sapiens) (UniProt P10275). The experiment in a line: Selectivity interaction (Eurofins CEREP Diversity Profile (receptors and ion channels)) EUB0000279b AR. Particulars: at 10 µM.
For experiment [8], the target named is Maternal embryonic leucine zipper kinase (Homo sapiens) (UniProt Q14680). The experiment in a line: Selectivity interaction (KinomeScan (DiscoverX)) EUB0000045b MELK.
The target in experiment [9] is Cyclin-dependent kinase 2/cyclin A (Homo sapiens) (UniProt P24941+P20248+P78396). The experiment can be described thus: Selectivity interaction (Kinase panel (Z-LYTE Assay)) EUB0001632a CDK2. The note with it: at 10 µM. The class given is protein-complex assay.
In experiment [10] the target is Mitogen-activated protein kinase kinase kinase 8 (Homo sapiens, UniProt P41279). The experiment can be described thus: Selectivity interaction (SelectScreen profiling (Invitrogen)) EUB0000607a MAP3K8. Particulars: at 2 µM.
Experiment [11] has as its target LIM domain kinase 1 (Homo sapiens) (UniProt P53667). The experiment can be described thus: Selectivity interaction (Kinase panel (Invitrogen)) EUB0000639a LIMK1. Particulars: at 200 nM.
In experiment [12] the target is Serine/threonine-protein kinase Chk2 (Homo sapiens) (UniProt O96017). The experiment can be described thus: Selectivity interaction (ActivX KiNativ screen (kinase selectivity in THP-1 cell lysates)) EUB0000639a CHEK2. The note with it: lysate, at 0.04 µM. Type of experiment: subcellular.
Experiment [13] has as its target Ribosomal protein S6 kinase alpha-6 (Homo sapiens, UniProt Q9UK32). The experiment can be described thus: Selectivity interaction (KinomeScan (DiscoverX)) EUB0000311b RPS6KA6. Particulars: at 1 µM.
The target of experiment [14] is Proto-oncogene tyrosine-protein kinase ROS (Homo sapiens) (UniProt P08922). The experiment in a line: Selectivity interaction (KinomeScan (DiscoverX)) EUB0000595a ROS1. Particulars: at 10 µM.
The target in experiment [15] is 5'-AMP-activated protein kinase catalytic subunit alpha-2 (Homo sapiens) (UniProt P54646). The experiment can be described thus: Selectivity interaction (ActivX KiNativ screen (ex vivo kinase selectivity in human PBMCs)) EUB0001619a PRKAA2. Type of experiment: cell-based. Particulars: PBMC, at 1 µM.

SMILES strings stand for the structures.

Maternal embryonic leucine zipper kinase (Homo sapiens), sequence (Q14680 whole entry, looked up): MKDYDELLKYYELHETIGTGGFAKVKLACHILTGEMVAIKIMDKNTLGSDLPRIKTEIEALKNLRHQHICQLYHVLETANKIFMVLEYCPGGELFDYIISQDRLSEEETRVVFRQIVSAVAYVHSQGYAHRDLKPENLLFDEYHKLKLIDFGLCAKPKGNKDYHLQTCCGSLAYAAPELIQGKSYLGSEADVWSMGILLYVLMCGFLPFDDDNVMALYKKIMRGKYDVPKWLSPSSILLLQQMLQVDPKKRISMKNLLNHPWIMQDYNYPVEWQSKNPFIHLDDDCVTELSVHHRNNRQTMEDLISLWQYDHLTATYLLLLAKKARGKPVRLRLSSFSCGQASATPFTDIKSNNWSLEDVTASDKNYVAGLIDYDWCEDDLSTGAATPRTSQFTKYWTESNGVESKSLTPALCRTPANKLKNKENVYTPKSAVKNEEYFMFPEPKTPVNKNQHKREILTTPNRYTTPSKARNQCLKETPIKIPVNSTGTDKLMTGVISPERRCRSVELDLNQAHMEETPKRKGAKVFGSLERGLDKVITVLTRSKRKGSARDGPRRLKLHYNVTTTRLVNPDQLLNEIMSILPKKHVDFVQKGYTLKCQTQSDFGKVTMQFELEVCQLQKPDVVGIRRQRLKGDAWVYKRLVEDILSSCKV
Androgen receptor (Homo sapiens), sequence (P10275 whole entry): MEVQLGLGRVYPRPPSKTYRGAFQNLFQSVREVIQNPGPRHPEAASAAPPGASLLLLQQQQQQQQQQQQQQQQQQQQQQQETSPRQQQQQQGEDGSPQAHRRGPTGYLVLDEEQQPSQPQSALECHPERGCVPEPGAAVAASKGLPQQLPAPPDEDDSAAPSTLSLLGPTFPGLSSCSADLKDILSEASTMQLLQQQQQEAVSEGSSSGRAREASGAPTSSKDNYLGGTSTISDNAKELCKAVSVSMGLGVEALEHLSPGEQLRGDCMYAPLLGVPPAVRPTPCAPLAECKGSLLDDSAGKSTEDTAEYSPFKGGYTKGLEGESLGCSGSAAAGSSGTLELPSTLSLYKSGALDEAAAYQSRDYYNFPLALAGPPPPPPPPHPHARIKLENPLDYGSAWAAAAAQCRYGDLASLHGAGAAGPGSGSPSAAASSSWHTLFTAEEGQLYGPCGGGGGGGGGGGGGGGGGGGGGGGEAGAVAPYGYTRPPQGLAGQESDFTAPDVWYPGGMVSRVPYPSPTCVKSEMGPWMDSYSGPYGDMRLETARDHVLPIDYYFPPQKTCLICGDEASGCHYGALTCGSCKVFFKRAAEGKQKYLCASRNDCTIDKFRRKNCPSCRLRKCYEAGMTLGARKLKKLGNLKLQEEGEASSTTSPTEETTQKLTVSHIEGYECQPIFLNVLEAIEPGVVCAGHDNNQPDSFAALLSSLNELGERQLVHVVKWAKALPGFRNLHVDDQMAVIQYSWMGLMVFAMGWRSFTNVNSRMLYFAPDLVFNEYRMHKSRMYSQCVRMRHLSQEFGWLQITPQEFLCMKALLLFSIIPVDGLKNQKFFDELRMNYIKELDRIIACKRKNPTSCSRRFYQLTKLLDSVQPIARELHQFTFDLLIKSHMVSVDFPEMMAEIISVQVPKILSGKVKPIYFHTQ
Serine/threonine-protein kinase Chk2 (Homo sapiens), sequence (O96017 whole entry): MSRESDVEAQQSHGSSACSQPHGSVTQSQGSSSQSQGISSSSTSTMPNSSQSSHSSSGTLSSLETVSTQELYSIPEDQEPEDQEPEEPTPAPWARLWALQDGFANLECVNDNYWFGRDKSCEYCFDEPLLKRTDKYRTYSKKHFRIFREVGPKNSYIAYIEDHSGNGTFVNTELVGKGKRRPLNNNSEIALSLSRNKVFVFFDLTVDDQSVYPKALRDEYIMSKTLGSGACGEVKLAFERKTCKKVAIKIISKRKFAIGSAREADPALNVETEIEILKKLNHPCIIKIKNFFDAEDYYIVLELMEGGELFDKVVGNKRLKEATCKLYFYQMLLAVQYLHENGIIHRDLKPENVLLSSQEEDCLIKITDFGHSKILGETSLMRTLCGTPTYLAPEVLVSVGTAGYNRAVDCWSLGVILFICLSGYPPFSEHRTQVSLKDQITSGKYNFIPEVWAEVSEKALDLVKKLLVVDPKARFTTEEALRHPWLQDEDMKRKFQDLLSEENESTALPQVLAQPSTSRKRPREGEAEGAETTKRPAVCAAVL
Fibroblast growth factor receptor 2 (Homo sapiens), sequence (P21802 22-821 limits assumed): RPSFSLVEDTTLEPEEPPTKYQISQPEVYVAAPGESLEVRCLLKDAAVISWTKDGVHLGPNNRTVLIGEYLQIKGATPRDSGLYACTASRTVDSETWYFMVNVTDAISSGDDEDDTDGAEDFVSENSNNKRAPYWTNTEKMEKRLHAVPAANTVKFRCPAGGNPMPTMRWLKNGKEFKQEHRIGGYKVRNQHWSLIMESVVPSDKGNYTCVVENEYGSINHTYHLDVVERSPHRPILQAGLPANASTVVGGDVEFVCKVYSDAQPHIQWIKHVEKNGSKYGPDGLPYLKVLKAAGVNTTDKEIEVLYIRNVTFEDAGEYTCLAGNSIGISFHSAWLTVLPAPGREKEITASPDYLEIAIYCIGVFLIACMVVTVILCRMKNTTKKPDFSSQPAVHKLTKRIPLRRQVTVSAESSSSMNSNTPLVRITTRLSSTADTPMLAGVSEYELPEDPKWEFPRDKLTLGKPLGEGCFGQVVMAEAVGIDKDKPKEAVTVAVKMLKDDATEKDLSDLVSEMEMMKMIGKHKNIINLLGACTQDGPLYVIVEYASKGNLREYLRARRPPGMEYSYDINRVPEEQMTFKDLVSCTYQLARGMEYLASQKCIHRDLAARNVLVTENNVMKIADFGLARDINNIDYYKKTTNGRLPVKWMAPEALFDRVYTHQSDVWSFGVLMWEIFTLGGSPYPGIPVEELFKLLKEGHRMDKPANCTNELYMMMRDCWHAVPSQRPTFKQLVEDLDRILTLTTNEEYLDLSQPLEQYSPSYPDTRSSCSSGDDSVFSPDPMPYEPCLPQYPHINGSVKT
Cyclin-dependent kinase 9, sequence (P50750 whole entry): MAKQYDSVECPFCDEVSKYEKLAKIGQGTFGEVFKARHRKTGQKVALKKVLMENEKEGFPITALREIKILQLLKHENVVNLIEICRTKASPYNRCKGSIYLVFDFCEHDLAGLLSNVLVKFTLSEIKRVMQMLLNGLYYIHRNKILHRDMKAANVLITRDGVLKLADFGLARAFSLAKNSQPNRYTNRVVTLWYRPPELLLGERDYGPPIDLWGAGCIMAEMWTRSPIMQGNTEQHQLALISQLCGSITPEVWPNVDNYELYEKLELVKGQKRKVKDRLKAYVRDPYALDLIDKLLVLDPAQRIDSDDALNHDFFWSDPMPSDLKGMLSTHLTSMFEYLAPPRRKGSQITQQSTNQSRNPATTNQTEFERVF
Mitogen-activated protein kinase kinase kinase 8, sequence (P41279 whole entry, the tested form may be a part): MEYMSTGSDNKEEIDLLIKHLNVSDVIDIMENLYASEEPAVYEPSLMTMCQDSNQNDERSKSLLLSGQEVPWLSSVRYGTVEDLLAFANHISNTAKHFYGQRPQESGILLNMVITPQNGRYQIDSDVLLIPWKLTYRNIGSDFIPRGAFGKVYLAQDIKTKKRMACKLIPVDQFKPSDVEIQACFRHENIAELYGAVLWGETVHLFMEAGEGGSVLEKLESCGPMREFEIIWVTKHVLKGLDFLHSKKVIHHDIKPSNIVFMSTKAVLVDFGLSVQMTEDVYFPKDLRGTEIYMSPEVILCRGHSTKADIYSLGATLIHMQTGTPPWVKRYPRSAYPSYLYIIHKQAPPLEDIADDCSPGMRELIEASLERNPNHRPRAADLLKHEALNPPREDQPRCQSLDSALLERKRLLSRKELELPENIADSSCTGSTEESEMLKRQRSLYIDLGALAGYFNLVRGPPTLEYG
Ribosomal protein S6 kinase alpha-6, sequence (Q9UK32 whole entry): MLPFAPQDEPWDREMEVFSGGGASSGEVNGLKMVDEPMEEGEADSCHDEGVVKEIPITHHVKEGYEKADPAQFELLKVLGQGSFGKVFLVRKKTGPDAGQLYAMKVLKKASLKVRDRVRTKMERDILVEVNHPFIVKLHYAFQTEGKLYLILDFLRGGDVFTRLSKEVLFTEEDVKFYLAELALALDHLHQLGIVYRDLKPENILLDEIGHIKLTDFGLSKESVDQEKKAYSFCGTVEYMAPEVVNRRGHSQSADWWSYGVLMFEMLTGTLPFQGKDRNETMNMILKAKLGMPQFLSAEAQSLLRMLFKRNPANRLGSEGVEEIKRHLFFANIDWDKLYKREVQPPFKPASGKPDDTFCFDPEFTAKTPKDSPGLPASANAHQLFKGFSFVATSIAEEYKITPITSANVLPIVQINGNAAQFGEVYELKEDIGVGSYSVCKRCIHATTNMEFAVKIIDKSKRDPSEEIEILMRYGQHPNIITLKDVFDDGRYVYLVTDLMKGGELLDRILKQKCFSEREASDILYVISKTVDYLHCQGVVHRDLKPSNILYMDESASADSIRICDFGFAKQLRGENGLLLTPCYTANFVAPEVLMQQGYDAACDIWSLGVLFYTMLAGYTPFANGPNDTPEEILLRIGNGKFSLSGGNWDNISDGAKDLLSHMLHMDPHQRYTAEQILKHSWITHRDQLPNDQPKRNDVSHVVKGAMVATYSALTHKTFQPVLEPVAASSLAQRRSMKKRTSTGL
5'-AMP-activated protein kinase catalytic subunit alpha-2 (Homo sapiens), sequence (P54646 whole entry, looked up): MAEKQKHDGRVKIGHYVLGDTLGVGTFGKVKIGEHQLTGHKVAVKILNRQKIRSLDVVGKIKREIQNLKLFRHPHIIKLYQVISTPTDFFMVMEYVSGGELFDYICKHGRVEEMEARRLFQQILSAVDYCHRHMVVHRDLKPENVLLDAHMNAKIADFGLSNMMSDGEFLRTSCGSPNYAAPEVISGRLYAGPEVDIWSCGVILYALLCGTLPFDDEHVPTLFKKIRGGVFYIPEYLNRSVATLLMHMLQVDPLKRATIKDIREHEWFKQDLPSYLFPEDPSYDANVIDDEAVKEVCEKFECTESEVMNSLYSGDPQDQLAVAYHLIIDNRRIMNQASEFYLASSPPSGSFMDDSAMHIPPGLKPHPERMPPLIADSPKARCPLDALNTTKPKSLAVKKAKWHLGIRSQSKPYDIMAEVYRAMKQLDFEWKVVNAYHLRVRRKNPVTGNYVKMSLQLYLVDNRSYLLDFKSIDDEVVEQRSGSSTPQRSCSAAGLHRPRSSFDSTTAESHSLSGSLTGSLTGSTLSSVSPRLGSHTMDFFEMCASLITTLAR

`C=CC(=O)Nc1cccc(C(=O)Nc2ccc(Nc3cc(-c4[nH]c(SC)nc4C)ccn3)cc2)c1`: the % of control in [1] (at 1 µM) stood at 92%; in [1] (at 5 µM), 111%; in experiment [2] (at 1 µM), 69%; in [2] (at 5 µM), 43%.

On to `Cc1cc([C@@H](C)Nc2ccccc2C(=O)O)c2nc(N3CCOCC3)cc(=O)n2c1` [AZD-6482], for which the % of control in [3] amounted to 63%. `CN(C)C/C=C/C(=O)Nc1ccc(C(=O)N2CCCC(Nc3ncc(Cl)c(-c4c[nH]c5ccccc45)n3)C2)cc1` (stereo not drawn) showed a % of control in experiment [4] of 67%. Consider `Nc1cnc(N2CCc3cc(S(=O)(=O)Nc4c(F)cc(Cl)cc4F)cc(N4CCCC4=O)c32)nc1` [TP-020n], for which the % of control in experiment [5] was 100%. `CCC(=O)N1CCN(c2ccc(-n3c(=O)ccc4cnc5ccc(-c6cnc7ccccc7c6)cc5c43)cc2C(F)(F)F)CC1`: the % of control in experiment [6] was determined as 94%. Turning to `CC(=O)c1cc(-c2ccccc2OCC2CC2)c2ncccn12`, in [7], the % of control is 105%. As to `C=CC(=O)Nc1cc(-n2c(=O)ccc3cnc4ccc(-c5ccc(NS(C)(=O)=O)cc5)cc4c32)ccc1C`, the % of control was 100% in [8] (at 1 µM) and 75% in [8] (at 10 µM).

Consider `Cn1cc(-n2cnc3c(NCc4nc5cc(Cl)c(Cl)cc5[nH]4)nc(N4CCOCC4)nc32)cn1`, for which, in experiment [9], the % of control came out at 3.2%. For the molecule `CNC(=O)Nc1ccc(-c2nc(N3CC4CCC(C3)O4)c3cnn(C4CCC5(CC4)OCCO5)c3n2)cc1`, the % of inhibition in experiment [10] worked out at 1%. For `CC[C@@H]1[C@H](F)C(=O)N[C@@H]1COc1nccc2cc(C(N)=O)c(OC)cc12` [ZIMLOVISERTIB], the % of inhibition in experiment [11] is 13.2%; in [12], -4.5%. In [13], `CCc1ccccc1C(=O)Nc1n[nH]c2c(C)c(F)c(C3C(C#N)=C(C)N(C)C(C)=C3C#N)cc12` [BAY-3827] showed a % of control of 2.9%. In turn, `COCC(=O)NC/C=C/c1ccc2ncnc(Nc3ccc(Oc4ccc(C)nc4)c(C)c3)c2c1` [CP-724714] showed a % of control in experiment [14] of 100%. Consider `N#Cc1cccc(-c2c[nH]c3ncnc(N4CCOCC4)c23)c1`, for which the % of inhibition in experiment [15] worked out at 27%.

Values taken from ChEMBL document CHEMBL5465560, “Selectivity Literature for EUbOPEN Chemogenomic Library” (2024).
